# Assays:
# Format in all cases: physicochemical
# [1] = Example 4: aqueous dissolution of branched-chain amino acids in a powdered nutritional product with varying myo-inositol, LC/UV of filtrate; conditions: 17.6 g powdered nutritional product, water 21° C., 400 rpm
# Protocol: (§1) The LC/UV system used to perform the tests comprised the following: 1) Column: YMC ODS-AQ, 4.6 x 250 mm, 5 μm, Waters P/N AQ12S052546WT; 2) Mobile Phase: Milli-Q Plus water; 3) Flow Rate: 0.4 mL/minute; 4) Temperature: 40° C.; 5) Detection: UV at 192 nm; 6) Injection: 2 μL of filtrate; and 7) Run Time: 20 minutes.
# Example 4 evaluates the effect that myo-inositol concentration has on the aqueous dissolution of branched-chain amino acids (valine, isoleucine, and leucine) in a powdered nutritional product. One serving (17.6 grams) of the powdered nutritional product contains 7.00 grams of a branched-chain amino acid blend comprising 50 wt. % leucine, 25 wt. % isoleucine, and 25 wt. % valine. A serving of the powdered nutritional product with a specified amount of myo-inositol was added to 16 fluid ounces of Milli-Q Plus water at 21° C. and stirred at 400 rpm. At each specified time point, an aliquot was obtained and filtered through a 0.45 μm PTFE membrane (Pall Life Sciences, Acrodisc CR 25, P/N 4501), and the filtrate was tested for valine, isoleucine, and leucine using the LC/UV method as described in Example 3.
# [2] = Example 3: aqueous dissolution of powdered branched-chain amino acid blend (first material) with varying myo-inositol, LC/UV of filtrate; conditions: for Dissolved amino acid (g per 16 oz.): 7.00 g BCAA blend, water 21° C., 400 rpm
# Protocol: (§2) Example 3 evaluates the effect that varying the myo-inositol concentration has on the aqueous dissolution of branched-chain amino acids. Two branched-chain amino acid materials were tested. The first material tested was 7.00 grams of a powdered branched-chain amino acid blend comprising 50 wt. % leucine, 25 wt. % isoleucine, and 25 wt. % valine. The second material tested was 3.5 grams of powdered leucine. Each material was tested with varying levels of powdered myo-inositol, expressed as a percentage of 17.6 grams (e.g., a serving of powdered nutritional product). For example, 1% myo-inositol is 0.176 grams, 2% myo-inositol is 0.352 grams, and so forth. The branched-chain amino acid material and the specified amount of myo-inositol were added to 16 fluid ounces of Milli-Q Plus water at 21° C. and stirred at 400 rpm. After 30 seconds and 60 seconds of stirring, an aliquot was obtained and filtered through a 0.45 μm PTFE membrane (Pall Life Sciences, Acrodisc CR 25, P/N 4501), and the filtrate of the first material was tested for valine, isoleucine, and leucine using the LC/UV method described below, while the filtrate of the second material was tested for leucine using the same LC/UV method. The test results for the first material tested are shown in Table 3, while the test results for the second material tested are shown in Table 4.
# as §1
# [3] = Example 5: effect of inositol isomers on dissolution of L-leucine, LC/UV of filtrate; conditions: 3.50 g L-leucine without inositol isomer (None, n = 3), water 21° C., 400 rpm
# Protocol: as §1, with “[…];” for “P/N AQ12S052546WT;”
# [4] = Example 3: aqueous dissolution of powdered leucine only (second material) with varying myo-inositol, LC/UV of filtrate; conditions: for Dissolved Leucine (g per 16 oz.): 3.5 g leucine only, water 21° C., 400 rpm
# Protocol: as §2, §1
# [5] = myo-inositol 0% of 17.6 g, 30 seconds
# [6] = myo-inositol 0% of 17.6 g, 60 seconds
# [7] = myo-inositol 1% of 17.6 g, 30 seconds
# [8] = myo-inositol 1% of 17.6 g, 60 seconds
# [9] = myo-inositol 2% of 17.6 g, 30 seconds
# [10] = myo-inositol 2% of 17.6 g, 60 seconds
# [11] = myo-inositol 4% of 17.6 g, 30 seconds
# [12] = myo-inositol 4% of 17.6 g, 60 seconds
# [13] = myo-inositol 8% of 17.6 g, 30 seconds
# [14] = myo-inositol 8% of 17.6 g, 60 seconds
smiles,measurement,setting,value
"CC(C)C[C@H](N)C(=O)O [Leucine, L-Leucine]",Dissolved amino acid (g per 16 oz.),"[1]; myo-inositol 0%, 30 seconds",1.73 g per 16 oz.
same,Dissolved amino acid (g per 16 oz.),"[1]; myo-inositol 0%, 60 seconds",2.42 g per 16 oz.
same,Dissolved amino acid (g per 16 oz.),"[1]; myo-inositol 0%, 90 seconds",2.67 g per 16 oz.
same,Dissolved amino acid (g per 16 oz.),"[1]; myo-inositol 0%, 240 seconds",3.22 g per 16 oz.
same,Dissolved amino acid (g per 16 oz.),"[1]; myo-inositol 0%, 600 seconds",3.44 g per 16 oz.
same,Dissolved amino acid (g per 16 oz.),"[1]; myo-inositol 1%, 30 seconds",1.95 g per 16 oz.
same,Dissolved amino acid (g per 16 oz.),"[1]; myo-inositol 1%, 60 seconds",2.51 g per 16 oz.
same,Dissolved amino acid (g per 16 oz.),"[1]; myo-inositol 1%, 90 seconds",2.76 g per 16 oz.
same,Dissolved amino acid (g per 16 oz.),"[1]; myo-inositol 1%, 240 seconds",3.27 g per 16 oz.
same,Dissolved amino acid (g per 16 oz.),"[1]; myo-inositol 1%, 600 seconds",3.40 g per 16 oz.
same,Dissolved amino acid (g per 16 oz.),"[1]; myo-inositol 2%, 30 seconds",1.91 g per 16 oz.
same,Dissolved amino acid (g per 16 oz.),"[1]; myo-inositol 2%, 60 seconds",2.36 g per 16 oz.
same,Dissolved amino acid (g per 16 oz.),"[1]; myo-inositol 2%, 90 seconds",2.67 g per 16 oz.
same,Dissolved amino acid (g per 16 oz.),"[1]; myo-inositol 2%, 240 seconds",3.25 g per 16 oz.
same,Dissolved amino acid (g per 16 oz.),"[1]; myo-inositol 2%, 600 seconds",3.45 g per 16 oz.
same,Dissolved amino acid (g per 16 oz.),"[1]; myo-inositol 4%, 30 seconds",2.02 g per 16 oz.
same,Dissolved amino acid (g per 16 oz.),"[1]; myo-inositol 4%, 60 seconds",2.47 g per 16 oz.
same,Dissolved amino acid (g per 16 oz.),"[1]; myo-inositol 4%, 90 seconds",2.72 g per 16 oz.
same,Dissolved amino acid (g per 16 oz.),"[1]; myo-inositol 4%, 240 seconds",3.23 g per 16 oz.
same,Dissolved amino acid (g per 16 oz.),"[1]; myo-inositol 4%, 600 seconds",3.38 g per 16 oz.
same,Dissolved amino acid (g per 16 oz.),"[1]; myo-inositol 8%, 30 seconds",1.94 g per 16 oz.
same,Dissolved amino acid (g per 16 oz.),"[1]; myo-inositol 8%, 60 seconds",2.45 g per 16 oz.
same,Dissolved amino acid (g per 16 oz.),"[1]; myo-inositol 8%, 90 seconds",2.66 g per 16 oz.
same,Dissolved amino acid (g per 16 oz.),"[1]; myo-inositol 8%, 240 seconds",3.30 g per 16 oz.
same,Dissolved amino acid (g per 16 oz.),"[1]; myo-inositol 8%, 600 seconds",3.48 g per 16 oz.
same,Dissolved amino acid (g per 16 oz.),[2]; [5],0.596 g per 16 oz.
same,Dissolved amino acid (g per 16 oz.),[2]; [6],1.21 g per 16 oz.
same,Dissolved amino acid (g per 16 oz.),[2]; [7],0.860 g per 16 oz.
same,Dissolved amino acid (g per 16 oz.),[2]; [8],1.51 g per 16 oz.
same,Dissolved amino acid (g per 16 oz.),[2]; [9],0.747 g per 16 oz.
same,Dissolved amino acid (g per 16 oz.),[2]; [10],1.53 g per 16 oz.
same,Dissolved amino acid (g per 16 oz.),[2]; [11],0.729 g per 16 oz.
same,Dissolved amino acid (g per 16 oz.),[2]; [12],1.36 g per 16 oz.
same,Dissolved amino acid (g per 16 oz.),[2]; [13],1.09 g per 16 oz.
same,Dissolved amino acid (g per 16 oz.),[2]; [14],1.94 g per 16 oz.
same,dissolution rate of leucine in first material compared with second material (FIG. 4),"[2]; 30 second time point, all myo-inositol concentrations",faster
same,Leu dissolved at 30 seconds (g/16 oz.),[3]; 30 seconds,0.422 ± 0.018 g/16 oz.
same,Leu dissolved at 60 seconds (% of total Leu),[3]; 60 seconds,23.7 ± 1.0 % of total Leu
same,Leu dissolved at 60 seconds (g/16 oz.),[3]; 60 seconds,0.828 ± 0.036 g/16 oz.
same,Dissolved Leucine (g per 16 oz.),[4]; [5],0.353 g per 16 oz.
same,Dissolved Leucine (g per 16 oz.),[4]; [6],0.703 g per 16 oz.
same,Dissolved Leucine (g per 16 oz.),[4]; [7],0.480 g per 16 oz.
same,Dissolved Leucine (g per 16 oz.),[4]; [8],1.04 g per 16 oz.
same,Dissolved Leucine (g per 16 oz.),[4]; [9],0.616 g per 16 oz.
same,Dissolved Leucine (g per 16 oz.),[4]; [10],1.33 g per 16 oz.
same,Dissolved Leucine (g per 16 oz.),[4]; [11],0.549 g per 16 oz.
same,Dissolved Leucine (g per 16 oz.),[4]; [12],1.09 g per 16 oz.
same,Dissolved Leucine (g per 16 oz.),[4]; [13],0.844 g per 16 oz.
same,Dissolved Leucine (g per 16 oz.),[4]; [14],1.62 g per 16 oz.
same,slope of plot of leucine dissolution vs myo-inositol on a molar basis (FIG. 5),"[4]; second material, myo-inositol 0%, 1%, 2%, 30-second plot",1.0816

# From patent publication US11589603B2, “Powdered nutritional product containing branched-chain amino acids and a sugar alcohol” (Abbott Laboratories, priority 2015, dated 2023)
